Experiment: Particle size distribution of precipitated cilostazol particles
Type: physicochemical
Conditions: filtered, dried
Procedure: A hot solution (70-75° C.) of cilostazol (23 g) in 1-methyl-2-pyrrolidinone (69 mL) was slowly added over a period of 5-10 min into water (345 mL) at 0-5° C. with stirring. The suspension was stirred at 0-5° C. for 1-2 hrs, filtered and rinsed with water (40 mL) and methanol (20 mL). The solid was dried under vacuum at 55-60° C. to give 22.1 g (yield 96%) cilostazol as a white powder. Particle size distribution: d(0.1)=0.71 micrometres, d(0.5)=5.94 mircrometres, d(0.9)=30.59 micrometres.
A hot solution (70-75° C.) of cilostazol (20 g) in 1-methyl-2-pyrrolidinone (40 mL) was slowly added over a period of 5-10 min into toluene (250 mL) at 0-5° C. with stirring. The suspension was stirred at 0-5° C. for 1-2 hrs, filtered and rinsed with toluene (100 mL). The solid was dried under vacuum at 55-60° C. to give 18.2 g (yield 91%) cilostazol as a white powder. Particle size distribution: d(0.1)=0.80 micrometres, d(0.5)=3.90 mircrometres, d(0.9)=25.56 micrometres.

[1] = Example 2: hot 1-methyl-2-pyrrolidinone solution added into water at 0-5° C.
[2] = Example 3: hot 1-methyl-2-pyrrolidinone solution added into toluene at 0-5° C.

O=C1CCc2cc(OCCCCc3nnnn3C3CCCCC3)ccc2N1 [cilostazol, 6-[4-(1-cyclohexyl-1H-tetrazol-5-yl)butoxy]-3,4-dihydro-2(1H)-quinolinone]
Particle size distribution d(0.1) [1]: 0.71 micrometres
Particle size distribution d(0.5) [1]: 5.94 mircrometres
Particle size distribution d(0.9) [1]: 30.59 micrometres
Particle size distribution d(0.1) [2]: 0.80 micrometres
Particle size distribution d(0.5) [2]: 3.90 mircrometres
Particle size distribution d(0.9) [2]: 25.56 micrometres
